Measured values as given in patent publication US20130217664A1, “NOVEL COMPOUNDS USEFUL FOR THE TREATMENT OF DEGENERATIVE AND INFLAMMATORY DISEASES” (priority 2012, published 2013).

Columns and labels:
Type in all cases: biochemical
[1] = target: T1, human JAK3 (Homo sapiens, UniProt P52333); experiment: JAK3 inhibition assay; conditions: recombinant human JAK3 catalytic domain; polyGT substrate
T1 construct: catalytic domain (amino acids 781-1124; catalog number PV3855); purchased Invitrogen PV3855
Experimental: 1.3 JAK3 Inhibition Assay
0.5 ng JAK3 protein was incubated with 2.5 μg polyGT substrate (Sigma catalog number P0275) in kinase reaction buffer (25 mM Tris pH 7.5, 0.5 mM EGTA, 10 mM MgCl2, 2.5 mM DTT, 0.5 mM Na3VO4, 5 mM b-glycerolphosphate, 0.01% Triton X-100, 1 μM non-radioactive ATP, 0.25 μCi 33P-gamma-ATP (GE Healthcare, catalog number AH9968) final concentrations) with or without 5 μL containing test compound or vehicle (DMSO, 1% final concentration), in a total volume of 25 μL, in a polypropylene 96-well plate (Greiner, V-bottom). After 45 min at 30° C., reactions were stopped by adding 25 μL/well of 150 mM phosphoric acid. […] Plates were washed 6 times with 300 μL per well of a 75 mM phosphoric acid solution and the bottom of the plates was sealed. 40 μL/well of Microscint-20 was added, the top of the plates was sealed and readout was performed using the Topcount (Perkin Elmer). Kinase activity was calculated by subtracting counts per min (cpm) obtained in the presence of a positive control inhibitor (10 μM staurosporine) from cpm obtained in the presence of vehicle. The ability of a test compound to inhibit this activity was determined as:
(§1) Percentage inhibition=((cpm determined for sample with test compound present−cpm determined for sample with positive control inhibitor)divided by(cpm determined in the presence of vehicle−cpm determined for sample with positive control inhibitor))*100.
(§2) Dose dilution series were prepared for the compounds enabling the testing of dose-response effects in the JAK3 assay and the calculation of the IC50 for each compound. Each compound was routinely tested at concentration of 20 μM followed by a 1/5 serial dilution, 10 points in a final concentration of 1% DMSO.

[2] = target: T2, human JAK1 (Homo sapiens, UniProt P23458); experiment: JAK1 inhibition assay (polyGT substrate / Ulight-JAK1 peptide); conditions: recombinant human JAK1 catalytic domain; polyGT or Ulight-JAK1 peptide assay
T2 construct: catalytic domain, amino acids 866-1154; catalog number PV4774; purchased Invitrogen PV4774
Experimental: 1.1 JAK1 Inhibition Assay
1.1.1 JAK1 Assay polyGT Substrate
After 45 min at 30° C., reactions are stopped by adding of 25 μL/well of 150 mM phosphoric acid. […] Plates are washed 6 times with 300 μL per well of a 75 mM phosphoric acid solution and the bottom of the plates is sealed. 40 μL/well of Microscint-20 is added, the top of the plates is sealed and readout is performed using the Topcount (Perkin Elmer). Kinase activity is calculated by subtracting counts per min (cpm) obtained in the presence of a positive control inhibitor (10 μM staurosporine) from cpm obtained in the presence of vehicle. The ability of a test compound to inhibit this activity is determined as:
as §1
Dose dilution series are prepared for the compounds enabling the testing of dose-response effects in the JAK1 assay and the calculation of the IC50 for each compound.
1.1.2 JAK1 Ulight-JAK1 Peptide Assay
After 60 min at room temperature, reactions were stopped by adding 20 μL/well of detection mixture (1× detection buffer (Perkin Elmer, catalog number CR97-100C), 0.5 nM Europium-anti-phosphotyrosine (PT66) (Perkin Elmer, catalog number AD0068), 10 mM EDTA). […] Kinase activity was calculated by subtracting relative fluorescence units (RFU) obtained in the presence of a positive control inhibitor (10 μM staurosporine) from RFU obtained in the presence of vehicle. The ability of a test compound to inhibit this activity was determined as:
Percentage inhibition=((RFU determined for sample with test compound present−RFU determined for sample with positive control inhibitor)divided by(RFU determined in the presence of vehicle−RFU determined for sample with positive control inhibitor))*100.
as §2, with “JAK1” for “JAK3”, “the” for “each”, “is” for “was”, “DMSO. […] The data are expressed as the average IC50 from the assays±standard error of the mean.” for “DMSO.”

[3] = target: T3, human TYK2 (Homo sapiens, UniProt P29597); experiment: TYK2 inhibition assay; conditions: recombinant human TYK2 catalytic domain, polyGT substrate
T3 construct: catalytic domain (amino acids 871-1187; catalog number 08-147); purchased Carna Biosciences 08-147
T3 sequence (P29597 871-1187): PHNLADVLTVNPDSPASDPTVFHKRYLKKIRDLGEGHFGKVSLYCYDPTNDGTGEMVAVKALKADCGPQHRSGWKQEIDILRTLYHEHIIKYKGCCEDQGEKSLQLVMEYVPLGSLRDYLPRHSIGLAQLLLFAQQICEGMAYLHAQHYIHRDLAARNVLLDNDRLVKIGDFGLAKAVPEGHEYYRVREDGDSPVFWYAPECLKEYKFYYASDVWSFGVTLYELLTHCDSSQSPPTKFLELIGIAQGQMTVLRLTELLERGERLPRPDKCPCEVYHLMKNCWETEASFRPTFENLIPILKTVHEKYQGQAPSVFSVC
Experimental: 1.4 TYK2 Inhibition Assay
After 90 min at 30° C., reactions were stopped by adding 25 μL/well of 150 mM phosphoric acid. […] Plates were washed 6 times with 300 μL per well of a 75 mM phosphoric acid solution and the bottom of the plates was sealed. 40 μL/well of Microscint-20 was added, the top of the plates was sealed and readout was performed using the Topcount (Perkin Elmer). Kinase activity was calculated by subtracting counts per min (cpm) obtained in the presence of a positive control inhibitor (10 μM staurosporine) from cpm obtained in the presence of vehicle. The ability of a test compound to inhibit this activity was determined as:
as §1
Dose dilution series were prepared for the compounds enabling the testing of dose-response effects in the TYK2 assay and the calculation of the IC50 for each compound.

T1 sequence (P52333 781-1124): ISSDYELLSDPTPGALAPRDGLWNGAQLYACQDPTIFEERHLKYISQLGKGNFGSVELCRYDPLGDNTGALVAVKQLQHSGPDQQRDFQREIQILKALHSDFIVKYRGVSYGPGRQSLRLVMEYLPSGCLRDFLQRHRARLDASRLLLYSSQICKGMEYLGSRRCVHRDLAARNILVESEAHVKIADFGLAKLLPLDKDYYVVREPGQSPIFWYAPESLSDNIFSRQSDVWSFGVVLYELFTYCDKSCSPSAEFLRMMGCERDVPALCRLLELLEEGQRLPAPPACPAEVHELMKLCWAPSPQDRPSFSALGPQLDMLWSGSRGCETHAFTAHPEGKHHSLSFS
T2 sequence (P23458 866-1154): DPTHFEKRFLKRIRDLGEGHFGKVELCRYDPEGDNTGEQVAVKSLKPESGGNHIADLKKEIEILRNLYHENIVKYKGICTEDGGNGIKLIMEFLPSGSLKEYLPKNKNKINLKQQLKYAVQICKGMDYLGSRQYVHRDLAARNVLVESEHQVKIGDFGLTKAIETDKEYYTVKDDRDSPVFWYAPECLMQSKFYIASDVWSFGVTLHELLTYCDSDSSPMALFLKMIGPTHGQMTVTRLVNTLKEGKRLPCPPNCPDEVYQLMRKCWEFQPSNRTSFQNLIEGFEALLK

SMILES	IC50 [1] [nM]	IC50 [2] [nM]	IC50 [3] [nM]
CCc1cc(C(=O)NCC2CCCCN2C)ccc1N(C)c1cc2c(cn1)ncn2C (centres unmarked) [Compound 165, 3-ethyl-4-(methyl(1-methyl-1H-imidazo[4,5-c]pyridin-6-yl)amino)-N-((1-methylpiperidin-2-yl)methyl)benzamide]	> 1000	101 to 500	> 1000
COc1cc(-c2cccs2)ncc1N(C)c1cc2c(cn1)ncn2C [Compound 264]	101 to 500	0.01 to 100	0.01 to 100
CCc1cc(C2CN(S(C)(=O)=O)C2)ccc1N(C)c1cc2c(cn1)ncn2C [Compound 290, [2-Ethyl-4-(1-methanesulfonyl-azetidin-3-yl)-phenyl]-methyl-(1-methyl-1H-imidazo[4,5-c]pyridin-6-yl)-amine]	0.01 to 100	0.01 to 100	0.01 to 100
CCc1cc(C(=O)NCC(C)(C)O)ccc1N(C)c1cc2c(cn1)ncn2C [Compound 161, 3-ethyl-N-(2-hydroxy-2-methylpropyl)-4-(methyl(1-methyl-1H-imidazo[4,5-c]pyridin-6-yl)amino)benzamide]	> 1000	101 to 500	> 1000
CCc1cc(CN(C)S(=O)(=O)C2CC2)ccc1N(C)c1cc2c(cn1)ncn2C [Compound 292, Cyclopropanesulfonic acid {3-ethyl-4-[methyl-(1-methyl-1H-imidazo[4,5-c]pyridin-6-yl)-amino]-benzyl}-methyl-amide]	0.01 to 100	0.01 to 100	101 to 500
CCc1cc(-c2cccs2)ncc1N(C)c1cc2c(cn1)ncn2C [Compound 289]	0.01 to 100	0.01 to 100	0.01 to 100
CCc1cc(CN(C)S(=O)(=O)CC)ccc1N(C)c1cc2c(cn1)ncn2C [Compound 294, Ethanesulfonic acid {3-ethyl-4-[methyl-(1-methyl-1H-imidazo[4,5-c]pyridin-6-yl)-amino]-benzyl}-methyl-amide]	0.01 to 100	0.01 to 100	0.01 to 100
CCc1cc(CNC2CCNC2)ccc1N(C)c1cc2c(cn1)ncn2C (centres unmarked) [Compound 293, [2-Ethyl-4-(pyrrolidin-3-ylaminomethyl)-phenyl]-methyl-(1-methyl-1H-imidazo[4,5-d]pyridin-6-yl)-amine]	> 1000	0.01 to 100	> 1000
CCc1cc(-c2ccc(OC)nc2)ccc1N(C)c1cc2c(cn1)ncn2C [Compound 130, N-(2-ethyl-4-(6-methoxypyridin-3-yl)phenyl)-N,1-dimethyl-1H-imidazo[4,5-c]pyridin-6-amine]	101 to 500	0.01 to 100	0.01 to 100
CCc1cc(O[C@H]2CCN(S(C)(=O)=O)C2)ccc1N(C)c1cc2c(cn1)ncn2C [Compound 260, (S)-N-(2-ethyl-4-(1-(methylsulfonyl)pyrrolidin-3-yloxy)phenyl)-N,1-dimethyl-1H-imidazo[4,5-c]pyridin-6-amine]	101 to 500	0.01 to 100	101 to 500
CCc1cc(-c2ccc(C#N)cc2)ccc1N(C)c1cc2c(cn1)ncn2C [Compound 162, 3′-ethyl-4′-(methyl(1-methyl-1H-imidazo[4,5-c]pyridin-6-yl)amino)biphenyl-4-carbonitrile]	101 to 500	0.01 to 100	0.01 to 100
CCc1cc(C(=O)NC#N)ccc1N(C)c1cc2c(cn1)ncn2C [Compound 179, N-Cyano-3-ethyl-4-(methyl(1-methyl-1H-imidazo[4,5-c]pyridin-6-yl)amino)benzamide]	101 to 500	0.01 to 100	0.01 to 100
CCc1cc(CNC2CCN(C(=O)OC(C)(C)C)C2)ccc1N(C)c1cc2c(cn1)ncn2C (centres unmarked) [Compound 291, 3-{3-Ethyl-4-[methyl-(1-methyl-1H-imidazo[4,5-c]pyridin-6-yl)-amino]-benzylamino}-pyrrolidine-1-carboxylic acid tert-butyl ester]	> 1000	0.01 to 100	101 to 500
CCc1ccccc1N(C)c1cc2c(cn1)ncn2C [Compound 16, (2-Ethyl-phenyl)-methyl-(1-methyl-1H-imidazo[4,5-c]pyridin-6-yl)-amine]	501 to 1000		101 to 500
CCc1cc(-c2ccsc2)ncc1N(C)c1cc2c(cn1)ncn2C [Compound 288, (4-Ethyl-6-thiophen-3-yl-pyridin-3-yl)-methyl-(1-methyl-1H-imidazo[4,5-c]pyridin-6-yl)-amine]	0.01 to 100	0.01 to 100	0.01 to 100
CCc1cc(C(=O)NC2(C#N)CCN(C)CC2)ccc1N(C)c1cc2c(cn1)ncn2C [Compound 166, N-(4-cyano-1-methylpiperidin-4-yl)-3-ethyl-4-(methyl(1-methyl-1H-imidazo[4,5-c]pyridin-6-yl)amino)benzamide]	> 1000	0.01 to 100	> 1000
